In article PMC3891991, “Synthesis and molecular modeling of six novel monastrol analogues: evaluation of cytotoxicity and kinesin inhibitory activity against HeLa cell line” (DARU Journal of Pharmaceutical Sciences, 2013):
In brackets after ≈: the same amount, converted by molar mass.

Experiments:
[1] = target: T1, kinesin heavy chain Motor (Homo sapiens, UniProt P33176); test: Kinesin ATPase activity assay (ELIPA kit, inorganic phosphate); assay type: biochemical; settings: ATPase activity of kinesin, n = 2, read-out: IC 50 (μg/ml) for Kinesin inhibition (converted)
T1 construct: kinesin heavy chain Motor (Cytoskeleton, Cat # KR01-A); purchased Cytoskeleton KR01-A
T1 sequence (P33176 8-325 limits assumed): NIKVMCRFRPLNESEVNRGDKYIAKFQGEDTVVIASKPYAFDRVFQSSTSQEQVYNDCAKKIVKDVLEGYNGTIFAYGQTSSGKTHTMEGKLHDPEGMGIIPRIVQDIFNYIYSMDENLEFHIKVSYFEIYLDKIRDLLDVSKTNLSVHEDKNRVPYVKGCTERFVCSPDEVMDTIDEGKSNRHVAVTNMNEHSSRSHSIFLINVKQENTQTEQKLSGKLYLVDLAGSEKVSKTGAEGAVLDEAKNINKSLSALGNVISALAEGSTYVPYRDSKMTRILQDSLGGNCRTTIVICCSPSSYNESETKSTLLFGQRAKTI

HeLa cell line = test: MTT cytotoxicity assay on HeLa cells; settings: Homo sapiens, 24 h, read-out: IC 50 (μg/ml) ± SD on HeLa cell line
Procedure: HeLa cell line was obtained from National Cell Bank of Iran, Pasteur Institute of Iran.
Cytotoxic effects of synthesized compounds were determined using the MTT [3-(4,5-dimethylthiazol-2-yl)-2,5-diphenyltetrazolium bromide] assay [18-20]. Briefly, 5000 HeLa cells/well were seeded in a 96-well plate and cultured overnight. Different concentrations of synthesized compounds were added to each well. […] Then, the medium was removed, and the purple formazan crystals were dissolved in 150 μl dimethylsulfoxide (Merck, Germany). Absorbance was measured at 545 nm (630 nm as a reference) in Synergy H4 Hybrid Multi-Mode Microplate Reader (Biotek, Model: H4MLFPTAD). IC50 was calculated using CalcuSyn (BioSoft).
HeLa cells were incubated with different concentrations of newly synthesized compounds for 24 h and cytotoxicities were evaluated using MTT assay.

CSc1ncc(C2NC(=S)NC3=C2C(=O)CC(C)(C)C3)n1Cc1ccccc1 (stereo not drawn) [Compound 4b, 4-[1-benzyl-2-(methylthio)-1H-imidazol-5-yl)-1,2,3,4,7,8-hexahydro-7,7 dimethyl-2-thio oxoquinazoline-5-(6H)-one]
IC50 [1]: 187 µM
melting point: 157 °C
IC50 (HeLa cell line): 301 ± 22 µg/mL (≈ 730 µM)

CSc1ncc(C2NC(=O)NC3=C2C(=O)CC(C)(C)C3)n1Cc1ccc(F)cc1 (stereo not drawn) [Compound 4e, 4-[1-(4-fluorobenzyl)-2-(methylthio)-1H-imidazol-5-yl]-3,4,7,8 – tetrahydro-7,7 dimethyl quinazoline-2,5-(1H,6H)-diones]
IC50 [1]: 232 µM
melting point: 82 °C
IC50 (HeLa cell line): 110 ± 28 µg/mL (≈ 265 µM)

CC1(C)CC(=O)C2=C(C1)NC(=S)NC2c1cccc(O)c1 (stereo not drawn) [dimethylenastrone, dimethylenastron, reference compound]
IC50 (HeLa cell line): 338 ± 26 µg/mL (≈ 1120 µM)

CSc1ncc(C2NC(=S)NC3=C2C(=O)CC(C)(C)C3)n1Cc1ccccc1Cl (stereo not drawn) [Compound 4d, 4-[1-(2-chlorobenyl)-2-methylthio-1H-imidazol-5-yl]-1,2,3,4,7,8-hexahydro-7,7 dimethyl-2-thio oxoquinazoline-5-(6H)-one]
melting point: 142 °C

CC(=O)O[C@H]1C(=O)[C@@]2(C)[C@H]([C@H](OC(=O)c3ccccc3)[C@]3(O)C[C@H](OC(=O)[C@H](O)[C@@H](NC(=O)c4ccccc4)c4ccccc4)C(C)=C1C3(C)C)[C@]1(OC(C)=O)CO[C@@H]1C[C@@H]2O [Taxol, reference compound]
IC50 [1]: 8.2 µM

CSc1ncc(C2NC(=S)NC3=C2C(=O)CC(C)(C)C3)n1Cc1ccc(F)cc1 (stereo not drawn) [Compound 4f, 4-[1-(4-fluorobenzyl)-2-methylthio-1H-imidazol-5-yl]-1,2,3,4,7,8-hexahydro-7,7-dimethyl-2-thiooxoquinazoline-5-(6H)-one]
IC50 [1]: 460 µM
melting point: 149 °C
IC50 (HeLa cell line): 339 ± 23 µg/mL (≈ 787 µM)

CSc1ncc(C2NC(=O)NC3=C2C(=O)CC(C)(C)C3)n1Cc1ccccc1 (stereo not drawn) [Compound 4a, 4-[1-benzyl-2-(methylthio)-1H-imidazol-5-yl)-3,4,7,8-tetrahydro-7,7 dimethyl-quinazoline-2,5-(1H,6H)-diones]
IC50 [1]: 182 µM
melting point: 169 °C
IC50 (HeLa cell line): 210 ± 21 µg/mL (≈ 530 µM)

CSc1ncc(C2NC(=O)NC3=C2C(=O)CC(C)(C)C3)n1Cc1ccccc1Cl (stereo not drawn) [Compound 4c, 4-[1-(2-chlorobenzyl)-2-(methylthio)-1H-imidazol-5-yl]-3,4,7,8-tetrahydro-7,7 dimethyl quinazoline-2,5-(1H,6H)-diones]
IC50 [1]: 183 µM
melting point: 149 °C
IC50 (HeLa cell line): 98 ± 19 µg/mL (≈ 227 µM)
